We go through three compounds from patent publication US20230107742A1, “SYNERGISTIC EFFECTS, AUGMENTING ANTIMICROBAL EFFECTS OF LIPIDS” (CAPRETTO EHF., priority 2016, published 2023).

Assay [1] deals with Enveloped viruses, such as HSV-1, VSV and visna virus. Particulars: more active than the free acid; cited from earlier work.
Assay [2] concerns Streptococcus pneumoniae (ATCC 49619). The experiment in a line: Agar petri dish test, plates wetted with 20 μl formulation, read after 24 hours. The settings on record: ethanol 5% in mPEG 95% (control).
Protocol: Formulations according to the invention were tested towards three bacterial strains: Staphylococcus aureus (ATCC 25923), Streptococcus pneumoniae (ATCC 49619), Haemophilus influenza (NCTC 8468). The bacteria were distributed in a thin layer across a petri dish with agar. Two plates were wetted with 20 μl of each formulation. The bacteria were allowed to grow at 37° C. for 24 hours. H. influenzae and S. pneumoniae were grown under CO2, but S. aureus was grown in normal atmosphere.
Readings of results were carried out 24 hours later.
In assay [3] the test system is Staphylococcus aureus (ATCC 25923). The assay is described as above. The settings on record: ethanol 5% in mPEG 95% (control).
Assay [4] relates to Haemophilus influenza (NCTC 8468). The assay is described as above. Format: cell-based. The settings on record: ethanol 5% in mPEG 95% (control).

For `CCCCCCCCCC(=O)OCC(O)CO` (centres unmarked) [Capric acid 1-monoglyceride, capric acid 1-monoglyceride], in assay [1], the “virucidal activity relative to the corresponding free fatty acid (capric, lauric acid)” value was 10 fold. Regarding `CCO` [ethanol], the “effect of ethanol alone against Streptococcus pneumoniae” value in assay [2] was “essentially no effect”. Moreover, the “effect of ethanol alone against Staphylococcus aureus” value in assay [3] is “essentially no effect”. The “effect of ethanol alone against Haemophilus influenza” value in assay [4] is recorded as “essentially no effect”. Turning to `CCCCCCCCCCCC(=O)OCC(O)CO` (centres unmarked) [lauric acid 1-monoglyceride], the “virucidal activity relative to the corresponding free fatty acid (capric, lauric acid)” value in assay [1] is listed as 10 fold.
